≈ marks a conversion by molar mass, not a printed value. Like-named read-outs stand apart in the source and are kept apart here.
How the values were obtained:
S. marcescens IAM 1184 = assay: Antibacterial test, agar plate dilution method (MIC), standard strains; type: cell-based; conditions: Serratia marcescens, IAM1184, MH agar, 37° C., 18 hours
Procedure: (§1) The antibacterial activities were tested by an agar plate dilution method in accordance with the standard method of The Japanese Chemotherapy Society [Chemotherapy, Vol. 29, 76-79 (1981)].
(§2) A Mueller-Hinton (MH) agar liquid medium of a test microorganism was cultured overnight at 37° C. and the resultant culture medium was diluted with a buffered saline gelatin (BSG) solution to contain approximately 10^6 cells of the test microorganisms per milliliter, and then the diluted solution was inoculated with a microplanter at the rate of approximately 5 microliters on a MH agar medium containing a test compound. This medium was then incubated at 37° C. for 18 hours. The minimum inhibitory concentration (MIC) is determined as a minimum concentration in which no test microorganism could grow. It is noted here that the test organisms used were all standard strains.

S. typhi 901 = assay: as above; type: cell-based; conditions: Salmonella enterica, 18 h
Procedure: as §1, §2

P. mirabilis IFO 3849 = assay: as above; type: cell-based; conditions: Proteus mirabilis, IFO3849, MH agar, 37° C., 18 hours
Procedure: as §1, §2

E. aerogenes ATCC 13048 = assay: as above; type: cell-based; conditions: Klebsiella aerogenes, ATCC13048, MH agar, 37° C., 18 hours
Procedure: as §1, §2

S. aureus FDA209P JC-1 = assay: as above; type: cell-based; conditions: Staphylococcus aureus, MH agar, 37° C., 18 hours
Procedure: as §1, §2

B. subtilis ATCC 6633 = assay: as above; type: cell-based; conditions: Bacillus subtilis, ATCC6633, MH agar, 37° C., 18 hours
Procedure: as §1, §2

S. aureus MS353 = assay: as above; type: cell-based; conditions: Staphylococcus aureus, MH agar, 37° C., 18 hours
Procedure: as §1, §2

P. rettgeri IFO 3850 = assay: as above; type: cell-based; conditions: Providencia rettgeri, IFO3850, MH agar, 37° C., 18 hours
Procedure: as §1, §2

S. aureus Terajima = assay: as above; type: cell-based; conditions: Staphylococcus aureus, MH agar, 37° C., 18 hours
Procedure: as §1, §2

P. vulgaris HX-19 = assay: as above; type: cell-based; conditions: Proteus vulgaris, HX19, MH agar, 37° C., 18 hours
Procedure: as §1, §2

S. enteritidis G14 = assay: as above; type: cell-based; conditions: Salmonella enterica, MH agar, 37° C., 18 hours
Procedure: as §1, §2

M. morganii IFO 3848 = assay: as above; type: cell-based; conditions: Morganella morganii, IFO3848, MH agar, 37° C., 18 hours
Procedure: as §1, §2

E. coli K-12 C600 = assay: as above; type: cell-based; conditions: Escherichia coli, K12C600, MH agar, 37° C., 18 hours
Procedure: as §1, §2

S. schottmuelleri 8006 = assay: as above; type: cell-based; conditions: MH agar, 37° C., 18 hours
Procedure: as §1, §2

M. luteus ATCC 9341 = assay: as above; type: cell-based; conditions: Micrococcus luteus, ATCC9341, MH agar, 37° C., 18 hours
Procedure: as §1, §2

P. vulgaris OX-19 = assay: as above; type: cell-based; conditions: Proteus vulgaris, OX19, MH agar, 37° C., 18 hours
Procedure: as §1, §2

S. typhimurium 11D971 = assay: as above; type: cell-based; conditions: Salmonella enterica, MH agar, 37° C., 18 hours
Procedure: as §1, §2

S. paratyphi 1015 = assay: as above; type: cell-based; conditions: Salmonella enterica, 18 h
Procedure: as §1, §2

K. pneumoniae PCI-602 = assay: as above; type: cell-based; conditions: Klebsiella pneumoniae, PCI602, MH agar, 37° C., 18 hours
Procedure: as §1, §2

E. coli NIHJ JC-2 = assay: as above; type: cell-based; conditions: Escherichia coli, NIHJJC2, MH agar, 37° C., 18 hours
Procedure: as §1, §2

S. pyogenes Cook = assay: as above; type: cell-based; conditions: Streptococcus pyogenes, MH agar, 37° C., 18 hours
Procedure: as §1, §2

E. cloacae 963 = assay: as above; type: cell-based; conditions: Enterobacter cloacae, MH agar, 37° C., 18 hours
Procedure: as §1, §2

[1] = In situ absorption from rat intestinal loop; type: in vivo, rats of Wistar strain; conditions: rat jejunal loop, 20 mg/kg
Procedure: 7-week-old male rats of Wistar strain were used after fasting overnight. After anesthetizing the animals with ether, the intestine was exteriorized and an acute loop of 30 cm length was prepared from the upper part of jejunum by ligature of both ends. 0.2% physiological saline solutions of the test compounds were injected at a dose of 20 mg/kg into the loop with a syringe, and the loop was returned. About 0.4 ml blood was taken from the vena jugularis at 10, 30, 60 and 120 minutes after dosing.

[2] = Oral absorption study in mice; type: in vivo, mice of ddY strain; conditions: 100 mg/kg
Procedure: 5-week-old male mice of ddY strain were used after fasting overnight. The test compounds in 1% physiological saline solution at a dose of 100 mg/kg were administered orally to a group of 2 mice. Blood was taken from the vena jugularis at 15, 30, 60 and 120 minutes after dosing.

S. marcescens = assay: Antibacterial activities against clinically isolated microorganism; type: cell-based; conditions: Serratia marcescens, 27 strains clinically isolated in Japan
Procedure: (§3) The following strains clinically isolated freshly in Japan were used in this test.
S. marcescens 27 strains
(§4) 2. The test was carried out by the agar plate dilution method in accordance with the standard method of The Japanese Chemotherapy Society. The minimum inhibitory concentration (MIC) was determined in substantially the same manner as the test procedures described in Test I.

E. cloacae = assay: as above; type: cell-based; conditions: Enterobacter cloacae, 14 strains clinically isolated in Japan
Procedure: as §3, §4

K. pneumoniae = assay: as above; type: cell-based; conditions: Klebsiella pneumoniae, 23 strains clinically isolated in Japan
Procedure: as §3, §4

E. faecalis = assay: as above; type: cell-based; conditions: Enterococcus faecalis, read-out: MIC50 against clinically isolated microorganism
Procedure: as §3, §4

S. epidermidis = assay: as above; type: cell-based; conditions: Staphylococcus epidermidis, 23 strains clinically isolated in Japan
Procedure: as §3, §4

MRSA = assay: as above; type: cell-based; conditions: Staphylococcus aureus, read-out: MIC50 against clinically isolated microorganism
Procedure: as §3, §4

[3] = Storage stability of the crystal at room temperature; type: physicochemical; conditions: dehumidified state, one month
Description: The 3-mercapto-1-(1,3-thiazolin-2-yl)azetidine hydrochloride (8) in the form of crystal obtained in the above Example 6 was left still in dehumidified state at a room temperature for one month.

[4] = only deesterified Compound (28) detected
[5] = 28 strains clinically isolated in Japan
[6] = plasma, for (32) and (33) shown as Compound (28)
[7] = mouse, plasma, for (32) and (33) shown as Compound (28)

SMILES | MIC (S. marcescens IAM 1184) | MIC (S. typhi 901) | MIC (P. mirabilis IFO 3849) | MIC (E. aerogenes ATCC 13048) | MIC (S. aureus FDA209P JC-1) | MIC (B. subtilis ATCC 6633) | MIC (S. aureus MS353) | MIC (P. rettgeri IFO 3850) | MIC (S. aureus Terajima) | MIC (P. vulgaris HX-19) | MIC (S. enteritidis G14) | MIC (M. morganii IFO 3848) | MIC (E. coli K-12 C600) | MIC (S. schottmuelleri 8006) | MIC (M. luteus ATCC 9341) | MIC50 (S. marcescens) | MIC50 (E. cloacae) | MIC50 (K. pneumoniae) | MIC50 (E. faecalis) | MIC50 (S. epidermidis) | further results
COCOC[C@@H]1CSC(N2CC(SC3=C(C(=O)O)N4C(=O)[C@H]([C@@H](C)O)[C@H]4[C@H]3C)C2)=N1 [Compound (31), (1R,5S,6S)-2-[1-((4R)-methoxymethyloxymethyl-1,3-thiazolin-2-yl)azetidin-3-yl]thio-6-[(R)-1-hydroxyethyl]-1-methyl-carbapen-2-em-3-carboxylic acid] | 0.39 µg/mL (≈ 0.852 µM) | 0.05 µg/mL (≈ 0.109 µM) | 0.78 µg/mL (≈ 1.7 µM) | 0.39 µg/mL (≈ 0.852 µM) | 0.05 µg/mL (≈ 0.109 µM) | 0.025 µg/mL (≈ 0.0546 µM) | 0.025 µg/mL (≈ 0.0546 µM) | 6.25 µg/mL (≈ 13.7 µM) | ≤ 6 ng/mL | 0.39 µg/mL (≈ 0.852 µM) | 0.2 µg/mL (≈ 0.437 µM) | 0.2 µg/mL (≈ 0.437 µM) | 0.2 µg/mL (≈ 0.437 µM) | 0.2 µg/mL (≈ 0.437 µM) | 0.2 µg/mL (≈ 0.437 µM) |  |  |  |  |  | MIC (P. vulgaris OX-19): 0.1 µg/mL (≈ 0.219 µM); MIC (S. typhimurium 11D971): 0.1 µg/mL (≈ 0.219 µM); MIC (S. paratyphi 1015): 0.05 µg/mL (≈ 0.109 µM); MIC (K. pneumoniae PCI-602): 0.013 µg/mL (≈ 0.0284 µM); MIC (E. coli NIHJ JC-2): 0.05 µg/mL (≈ 0.109 µM); MIC (S. pyogenes Cook): ≤ 6 ng/mL; MIC (E. cloacae 963): 0.2 µg/mL (≈ 0.437 µM)
CC(OC(=O)OC1CCCCC1)OC(=O)C1=C(SC2CN(C3=NCCS3)C2)[C@H](C)[C@@H]2[C@@H]([C@@H](C)O)C(=O)N12 (stereo partly drawn) [Compound (33), 1-[(cyclohexyloxy)carbonyloxy] ethyl (1R,5S,6S)-2-[1-(1,3-thiazolin-2-yl)azetidin-3-yl]thio-6-[(R)-1-hydroxyethyl]-1-methylcarbapen-2-em-3-carboxylate] |  |  |  |  |  |  |  |  |  |  |  |  |  |  |  |  |  |  |  |  | plasma level of the administered ester itself [1, 4]: undetectable; plasma level of the administered ester itself [2, 4]: undetectable
C[C@@H](O)[C@H]1C(=O)N2C(C(=O)O)=C(SC3CN(C4=NCCS4)C3)[C@H](C)[C@H]12 [Compound (28), (1R,5S,6S)-2-[1-(thiazolin-2-yl)azetidin-3-yl]thio-6-[(R)-1-hydroxyethyl]-1-methyl-carbapen-2-em-3-carboxylic acid] | 0.05 µg/mL (≈ 0.13 µM) | ≤ 0.006 µg/mL | 0.39 µg/mL (≈ 1.02 µM) | 0.1 µg/mL (≈ 0.261 µM) | 0.013 µg/mL (≈ 0.0339 µM) | 0.025 µg/mL (≈ 0.0652 µM) | ≤ 0.006 µg/mL | 0.39 µg/mL (≈ 1.02 µM) | ≤ 6 ng/mL | 0.1 µg/mL (≈ 0.261 µM) | 0.39 µg/mL (≈ 1.02 µM) | 0.39 µg/mL (≈ 1.02 µM) | 0.1 µg/mL (≈ 0.261 µM) | 0.025 µg/mL (≈ 0.0652 µM) | 0.2 µg/mL (≈ 0.522 µM) | 0.2 µg/mL (≈ 0.522 µM) | 0.1 µg/mL (≈ 0.261 µM) | 0.025 µg/mL (≈ 0.0652 µM) | 0.39 µg/mL (≈ 1.02 µM) | 0.39 µg/mL (≈ 1.02 µM) | MIC50 (MRSA; [5]): 0.78 µg/mL (≈ 2.03 µM); AUC(0-t) at 2 h [1, 6]: 1000 ng·h/mL; Cmax [1, 6]: 800 ng/mL; MIC (P. vulgaris OX-19): 0.1 µg/mL (≈ 0.261 µM); MIC (S. typhimurium 11D971): 0.025 µg/mL (≈ 0.0652 µM); MIC (S. paratyphi 1015): 0.05 µg/mL (≈ 0.13 µM); MIC (K. pneumoniae PCI-602): 0.013 µg/mL (≈ 0.0339 µM); MIC (E. coli NIHJ JC-2): 0.013 µg/mL (≈ 0.0339 µM); MIC (S. pyogenes Cook): ≤ 6 ng/mL; MIC (E. cloacae 963): 0.05 µg/mL (≈ 0.13 µM); AUC(0-t) at 2 h [2, 7]: 5000 ng·h/mL; Cmax [2, 7]: 3500 ng/mL
CC(C)(O/N=C(\C(=O)N[C@@H]1C(=O)N2C(C(=O)[O-])=C(C[n+]3ccccc3)CS[C@H]12)c1csc(N)n1)C(=O)O [CAZ, ceftazidime] |  |  |  |  |  |  |  |  |  |  |  |  |  |  |  | 0.39 µg/mL (≈ 0.714 µM) | 1.56 µg/mL (≈ 2.85 µM) | 0.2 µg/mL (≈ 0.366 µM) | 25 µg/mL (≈ 45.7 µM) | 12.5 µg/mL (≈ 22.9 µM) | MIC50 (MRSA): 100 µg/mL (≈ 183 µM)
C[C@@H](O)[C@H]1C(=O)N2C(C(=O)O)=C(SCCN=CN)C[C@H]12 [Imipenem, imipenem] |  |  |  |  |  |  |  |  |  |  |  |  |  |  |  | 1.56 µg/mL (≈ 5.21 µM) | 0.2 µg/mL (≈ 0.668 µM) | 0.2 µg/mL (≈ 0.668 µM) | 0.78 µg/mL (≈ 2.61 µM) | 0.2 µg/mL (≈ 0.668 µM) | MIC50 (MRSA; [5]): 3.13 µg/mL (≈ 10.5 µM)
Cl.SC1CN(C2=NCCS2)C1 [compound (8), 3-mercapto-1-(1,3-thiazolin-2-yl)azetidine hydrochloride] |  |  |  |  |  |  |  |  |  |  |  |  |  |  |  |  |  |  |  |  | purity after storage (storage stability) [3]: did not change at all
